Reference: BindingDB's records for doi:10.1021/jm100157m (University of Arizona, 2010)

Assay: Agonist activity at mu opioid receptor in guinea pig ileum assessed as inhibition of electrically-stimulated muscle contraction

Q: With `CSCC[C@H](NC(=O)[C@H](Cc1ccccc1)NC(=O)CNC(=O)[C@@H](C)NC(=O)[C@@H](N)Cc1ccc(O)cc1)C(=O)N1CCC[C@H]1C(=O)N[C@@H](CC(C)C)C(=O)N[C@@H](Cc1c[nH]c2ccccc12)C(=O)NCc1cc(C(F)(F)F)cc(C(F)(F)F)c1` [Tyr-D-Ala-Gly-Phe-Met-Pro-Leu-Trp-NH-3,5-Bzl(CF 3) 2] as the compound, how does the IC50 read?
A: Its IC50 is 420 nM.
